The test system of the assay is HIF-2α HIS TAG-PASB Domain. In words: HIF-2α Scintillation Proximity Assay (SPA). Type of assay: binding. As for the experimental part:
The percent inhibition was determined and IC50 values were calculated using the Dotmatics system based on the following equation: % inhibition=[(high control−sample)/(high control−low control)]×100.
In general terms: SPA uses beads or plates that emit light when radiolabelled molecules are held near them.

Each structure is given as a SMILES string.

Regarding `CS(=O)(=O)c1ccc(Oc2cncc(Br)c2)c2c1C(=O)C(F)(F)C2` [Compound 323, 4-((5-Bromopyridin-3-yl)oxy)-2,2-difluoro-7-(methylsulfonyl)-2,3-dihydro-1H-inden-1-one], 5250 nM corresponded to half-maximal inhibition (IC50).
As for `Cc1cc(Oc2ccc(S(=O)(=O)C(F)F)c3c2CC(F)(F)C3=O)ccc1F` [Compound 197, 7-((Difluoromethyl)sulfonyl)-2,2-difluoro-4-(4-fluoro-3-methylphenoxy)-2,3-dihydro-1H-inden-1-one], the figure is 770 nM; as for `Cc1cc(C)cc(Oc2ccc(S(=O)(=O)C(F)(F)F)cc2Br)c1` [Compound 173, 2-Bromo-1-(3,5-dimethylphenoxy)-4-((trifluoromethyl)sulfonyl)benzene], 2000 nM.
`Cc1c(Oc2cc(F)cc(Cl)c2)ccc(S(=O)(=O)C(F)(F)F)c1Cl` [Compound 143, 3-Chloro-1-(3-chloro-5-fluoro-phenoxy)-2-methyl-4-(trifluoromethylsulfonyl)benzene] registered a concentration for half-maximal inhibition (IC50) of 20 nM.
The molecule `O=S(=O)(c1ccc(Oc2cc(Cl)ccc2F)c(Br)c1)C(F)(F)F` [Compound 170, 2-Bromo-1-(5-chloro-2-fluorophenoxy)-4-((trifluoromethyl)sulfonyl)benzene] registered a half-maximal inhibitory concentration (IC50) of 1800 nM.
As for `Cc1c(S(C)(=O)=O)ccc(Oc2cc(F)cc(Cl)c2)c1C(F)F` [Compound 53, 1-(3-Chloro-5-fluorophenoxy)-2-(difluoromethyl)-3-methyl-4-(methylsulfonyl)benzene], the figure is 330 nM.
Turning to `Cc1cc(S(=O)(=O)C(F)F)ccc1Oc1cc(F)cc(C#N)c1` [Compound 136, 3-[4-(Difluoromethylsulfonyl)-2-methyl-phenoxy]-5-fluoro-benzonitrile], 230 nM corresponded to half-maximal inhibition (IC50).
`O=S(=O)(c1ccc(Oc2cncc(Cl)c2)c2c1[C@H](O)CC2)C(F)F` [Compound 3, (R)-4-((5-chloropyridin-3-yl)oxy)-7-((difluoromethyl)sulfonyl)-2,3-dihydro-1H-inden-1-ol] registered a half-inhibitory concentration (IC50) of 340 nM.
In turn, `CC(=O)NCc1c(S(=O)(=O)C(F)F)ccc(Oc2cc(F)cc(Cl)c2)c1Br` [Compound 86, N-(2-Bromo-3-(3-chloro-5-fluorophenoxy)-6-((difluoromethyl)sulfonyl)benzyl)acetamide] registered a concentration for half-maximal inhibition (IC50) of 71000 nM.
Next, `O=S(=O)(c1ccc(Oc2cc(F)cc(Cl)c2)c(Cl)c1CNC1CCCOC1)C(F)F` (centres unmarked) [Compound 49, N-(2-Chloro-3-(3-chloro-5-fluorophenoxy)-6-((difluoromethyl)sulfonyl)benzyl)tetrahydro-2H-pyran-3-amine]: 13000 nM; `N#Cc1cc(F)cc(Oc2ccc(S(=O)(=O)C(F)F)c3c2CCC3F)c1` (centres unmarked) [Compound 202, 3-((7-((Difluoromethyl)sulfonyl)-1-fluoro-2,3-dihydro-1H-inden-4-yl)oxy)-5-fluorobenzonitrile]: 680 nM; `CS(=O)(=O)c1ccc(Oc2cc(F)cc(C#N)c2)c2c1[C@H](O)C[C@@H]2F` [Compound 295, 3-fluoro-5-[(1R,3S)-3-fluoro-1-hydroxy-7-methylsulfonyl-indan-4-yl]oxy-benzonitrile]: 230 nM.
As for `N#Cc1cc(F)cc(Oc2ccc(S(=O)(=O)C(F)F)cc2C#N)c1` [Compound 134, 2-(3-Cyano-5-fluorophenoxy)-5-((difluoromethyl)sulfonyl)benzonitrile], the figure is 450 nM; as for `O=S(=O)(c1ccc(Oc2ccc(F)c(F)c2)c2c1[C@H](O)C(F)(F)C2)C(F)(F)F` [Example 233, (S)-4-(3,4-Difluorophenoxy)-2,2-difluoro-7-((trifluoromethyl)sulfonyl)-2,3-dihydro-1H-inden-1-ol], under 5 nM.
Next, `N#Cc1cncc(Oc2ccc(C(F)(F)F)c3c2CC(F)(F)[C@H]3O)c1` [Example 303, 5-[(1S)-2,2-difluoro-1-hydroxy-7-(trifluoromethyl)indan-4-yl]oxypyridine-3-carbonitrile]: 37 nM.
For `N#CN=S(=O)(c1ccc(Oc2cc(F)cc(C#N)c2)c2c1[C@H](O)[C@H](F)C2)C(F)F` (stereo partly drawn) [Compound 299, N-(((2R,3S)-7-(3-cyano-5-fluorophenoxy)-2-fluoro-3-hydroxy-2,3-dihydro-1H-inden-4-yl)(difluoromethyl)(oxo)-λ^6-sulfanylidene)cyanamide], the midpoint of inhibition, the IC50, lay at 16100 nM.
Regarding `N#Cc1cc(F)cc(Oc2ccc(S(=O)(=O)CCO)c3c2CC(F)(F)C3O)c1` (centres unmarked) [Compound 250, 3-((2,2-Difluoro-1-hydroxy-7-((2-hydroxyethyl)sulfonyl)-2,3-dihydro-1H-inden-4-yl)oxy)-5-fluorobenzonitrile], it took 1300 nM to reach half-maximal inhibition (IC50).
In the case of `O=S(=O)(c1ccc(Oc2cc(F)cc(Cl)c2)c2c1C(O)C(F)(F)C2)C(F)F` (centres unmarked) [Compound 8, 4-(3-chloro-5-fluoro-phenoxy)-7-(difluoromethylsulfonyl)-2,2-difluoro-indan-1-ol], the concentration for half-maximal inhibition (IC50) is under 5 nM.
Molecule `O=S(=O)(c1ccc(Oc2cc(F)c[n+]([O-])c2)c2c1[C@H](O)C(F)(F)C2)C(F)(F)F` [Example 310, (S)-3-((2,2-difluoro-1-hydroxy-7-((trifluoromethyl)sulfonyl)-2,3-dihydro-1H-inden-4-yl)oxonio)-5-fluoropyridine 1-oxide] came in with an IC50 of 16 nM.
In turn, `N#Cc1c(I)ccc(Oc2cc(F)cc(Cl)c2)c1Br` [Compound 96, 2-Bromo-3-(3-chloro-5-fluorophenoxy)-6-iodobenzonitrile] registered a half-maximal inhibitory concentration (IC50) of 3100 nM.
Next, `N#Cc1cc(F)cc(Oc2ccc(S(=O)(=O)C(F)F)c(CO)c2Br)c1` [Compound 80, 3-(2-Bromo-4-((difluoromethyl)sulfonyl)-3-(hydroxymethyl)phenoxy)-5-fluorobenzonitrile]: 22 nM.
`COC(=O)c1c([S+]([O-])C(F)F)ccc(Oc2cc(F)cc(Cl)c2)c1Br` (centres unmarked) [Compound 82, Methyl 2-bromo-3-(3-chloro-5-fluorophenoxy)-6-((difluoromethyl)sulfinyl)benzoate] displayed an IC50 of 15000 nM.
Next, `O=S(=O)(c1ccc(Oc2c(F)ccc3[nH]ncc23)c2c1[C@H](O)C(F)(F)C2)C(F)(F)F` [Compound 264, (S)-2,2-Difluoro-4-((5-fluoro-1H-indazol-4-yl)oxy)-7-((trifluoromethyl)sulfonyl)-2,3-dihydro-1H-inden-1-ol]: 380 nM; `Cc1c(S(C)(=O)=O)ccc(Oc2cc(F)cc(C#N)c2)c1C#N` [Compound 51, 6-(3-Cyano-5-fluorophenoxy)-2-methyl-3-(methylsulfonyl)benzonitrile]: 2000 nM.
As for `C[S+]([O-])c1ccc(Oc2cc(F)cc(C#N)c2)c2c1[C@H](O)C(F)(F)C2` (stereo partly drawn) [Compound 272, 3-[(1S)-2,2-Difluoro-1-hydroxy-7-methylsulfinyl-indan-4-yl]oxy-5-fluoro-benzonitrile], the figure is 2000 nM; as for `N#Cc1cc(S(=N)(=O)C(F)(F)F)ccc1Oc1cc(F)cc(Cl)c1` (centres unmarked) [Compound 72, 2-(3-chloro-5-fluorophenoxy)-5-((trifluoromethyl)sulfonimidoyl)benzonitrile], 510 nM.
Next, `O=S(=O)(c1ccc(Oc2cc(F)cc(Cl)c2)c(Br)c1CNCc1ccccc1)C(F)(F)F` [Compound 110, N-Benzyl-1-(2-bromo-3-(3-chloro-5-fluorophenoxy)-6-((trifluoromethyl)sulfonyl)phenyl)methanamine]: 1600 nM; `O=C1CCc2c(Oc3cc(F)cc(Cl)c3)ccc(S(=O)(=O)C(F)F)c21` [Compound 18, 4-(3-chloro-5-fluorophenoxy)-7-((difluoromethyl)sulfonyl)-2,3-dihydro-1H-inden-1-one]: 120 nM.
On to `N#Cc1cc(F)cc(Oc2ccc(S(=O)(=O)C(F)(F)F)c(Cl)c2C#N)c1` [Compound 29, 2-Chloro-6-(3-cyano-5-fluorophenoxy)-3-((trifluoromethyl)sulfonyl)benzonitrile], for which the half-inhibitory concentration (IC50) came to 22 nM.
As for `CS(=O)(=NC#N)c1ccc(Oc2cc(F)cc(C#N)c2)c2c1[C@H](O)[C@H](F)C2` (stereo partly drawn) [Example 302, N-(((2R,3S)-7-(3-cyano-5-fluorophenoxy)-2-fluoro-3-hydroxy-2,3-dihydro-1H-inden-4-yl)(methyl)(oxo)-λ^6-sulfanylidene)cyanamide], the figure is 63 nM; as for `O=S(=O)(CF)c1ccc(Oc2cc(F)cc(Cl)c2)c(Br)c1` [Compound 137, 2-Bromo-1-(3-chloro-5-fluorophenoxy)-4-((fluoromethyl)sulfonyl)benzene], 560 nM; as for `N#CN=S(=O)(CF)c1ccc(Oc2cc(F)cc(C#N)c2)c2c1[C@H](O)C(F)(F)C2` (single isomer, unassigned) [Example 285], 71 nM.
Take `N#Cc1cc(F)cc(Oc2ccc(S(=O)(=O)C(F)(F)F)c3c2[C@@H](N)C[C@H]3O)c1` (relative stereo) [Compound 279, 3-((cis-3-amino-1-hydroxy-7-((trifluoromethyl)sulfonyl)-2,3-dihydro-1H-inden-4-yl)oxy)-5-fluorobenzonitrile]: it took 5100 nM to reach half-maximal inhibition (IC50).
For the molecule `CS(=O)(=O)c1ccc(Oc2cc(F)cc(Cl)c2)c2c1[C@H](O)C(F)(F)C2` [Example 160, (1S)-4-(3-Chloro-5-fluoro-phenoxy)-2,2-difluoro-7-methylsulfonyl-indan-1-ol], the IC50 is under 5 nM.
In the case of `N#Cc1cccc(Oc2ccc(S(=O)(=O)C(F)(F)F)cc2Br)c1` [Compound 117, 3-(2-Bromo-4-((trifluoromethyl)sulfonyl)phenoxy)benzonitrile], the IC50 was determined as 210 nM.
Next, `N=S(=O)(c1ccc(Oc2cc(F)cc(Cl)c2)c(Br)c1Cl)C(F)(F)F` (centres unmarked) [Compound 75, (3-bromo-2-chloro-4-(3-chloro-5-fluorophenoxy)phenyl)(imino)(trifluoromethyl)-λ^6-sulfanone]: 240 nM; `CS(=O)(=O)c1ccc(Oc2cncc(Br)c2)c2c1[C@H](O)C(F)(F)C2` [Compound 324, (S)-4-((5-Bromopyridin-3-yl)oxy)-2,2-difluoro-7-(methylsulfonyl)-2,3-dihydro-1H-inden-1-ol]: 54 nM; `CS(=O)(=O)c1ccc(Oc2cc(F)cc(Br)c2)c2c1[C@H](O)C(F)(F)C2` [Example 304, (S)-4-(3-bromo-5-fluorophenoxy)-2,2-difluoro-7-(methylsulfonyl)-2,3-dihydro-1H-inden-1-ol]: under 5 nM.

In general, IC50 refers to the concentration that gives 50% inhibition. Read a low IC50 as greater potency.

These data come from US9896418B2, “Aryl ethers and uses thereof” (Peloton Therapeutics, Inc., priority 2013, dated 2018).
